The record followed here is the supplement of paper PMC11003180.

What all share (experiment): drug sensitivity score (DSS) from 5-dose viability curve (DSS (area-based score, 0 = no response)); higher = more sensitive (stronger viability inhibition); extreme values may be limits of the assay
For test [1], the system named is MDCK wild-type + doxycycline. The following applies: doxycycline: 10 ng/mL; 72 h. The essentials:
(§1)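 Two MDCK lines, parental and doxycycline-inducible, received doxycycline at 10 ng/mL in the medium before being plated at 2000 cells/well onto a pre-spotted 384-well oncology library of 528 drugs at five doses (1-10,000 nM). Incubation lasted 72 h at 37 °C. Viability was read by CellTiter-Glo luminescence, scaled per plate between vehicle and positive controls, and converted to drug sensitivity scores through Breeze curve fitting.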

Test [2] relates to MDCK p60AmotL2-inducible + doxycycline (p60AmotL2 expressing). The following applies: doxycycline: 10 ng/mL; 72 h. The essentials: as §1
Test [3] has as its system MDCK wild-type - doxycycline. The following applies: doxycycline: none; 72 h. The essentials:
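An oncology library of 528 drugs was pre-spotted at five doses (1-10,000 nM) in 384-well plates, and parental MDCK cells without doxycycline were added at 2000 cells/well. The plates were kept at 37 °C for 72 h. Drug sensitivity scores were obtained by fitting dose-response curves in the Breeze pipeline to CellTiter-Glo viability readings scaled per plate between vehicle and positive controls.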

On to `C[C@@H]1COC(Nc2ccc3ncnc(Nc4ccc(OCc5nccs5)c(Cl)c4)c3c2)=N1` [Varlitinib], for which the drug sensitivity score in test [1] worked out at 3.6; in test [2], 7.2; in test [3], 1.6.

`Clc1ccc(Nc2nnc(Cc3ccncc3)c3ccccc23)cc1` [Vatalanib]: the drug sensitivity score in test [1], in test [2] and in test [3] was 0 each time.

Take `C[C@]1(c2nc3c(C(N)=O)cccc3[nH]2)CCCN1` [Veliparib]: the drug sensitivity score in test [1], in test [2] and in test [3] was 0 each time.

For the molecule `CCCS(=O)(=O)Nc1ccc(F)c(C(=O)c2c[nH]c3ncc(-c4ccc(Cl)cc4)cc23)c1F` [Vemurafenib], the drug sensitivity score in test [1], in test [2] and in test [3] was 0 in each case.

On to `CC1(C)CCC(CN2CCN(c3ccc(C(=O)NS(=O)(=O)c4ccc(NCC5CCOCC5)c([N+](=O)[O-])c4)c(Oc4cnc5[nH]ccc5c4)c3)CC2)=C(c2ccc(Cl)cc2)C1` [Venetoclax], for which the drug sensitivity score in test [1], in test [2] and in test [3] was 0 throughout.

For `O=C(/C=C\n1cnc(-c2cc(C(F)(F)F)cc(C(F)(F)F)c2)n1)NNc1ccccn1` [Verdinexor], the drug sensitivity score in test [1] stood at 10.6; in test [2] it was 10.1; in test [3], 9.2.

On to `CCCCOc1nc(N)c2c(n1)N(Cc1cccc(CN3CCCC3)c1)CC(=O)N2` [Vesatolimod], for which the drug sensitivity score in test [1], in test [2] and in test [3] was 0 in each case.

Turning to `COc1cccc(-c2ccc(NC(=O)C3=C(C(=O)O)CCC3)c(F)c2)c1` [Vidofludimus], the values for the drug sensitivity score in test [1], in test [2] and in test [3] were 0.6, 1.2 and 0.4, respectively.

For the molecule `CC[C@]1(O)C[C@@H]2CN(CCc3c([nH]c4ccccc34)[C@@](C(=O)OC)(c3cc4c(cc3OC)N(C)[C@H]3[C@@](O)(C(=O)OC)[C@H](OC(C)=O)[C@]5(CC)C=CCN6CC[C@]43[C@@H]65)C2)C1` [Vinblastine], the drug sensitivity score is 24 in test [1], 25.2 in test [2] and 25.6 in test [3].

For the molecule `CC[C@]1(O)C[C@H]2CN(CCc3c([nH]c4ccccc34)[C@@](C(=O)OC)(c3cc4c(cc3OC)N(C=O)[C@H]3[C@@](O)(C(=O)OC)[C@H](OC(C)=O)[C@]5(CC)C=CCN6CC[C@]43[C@@H]65)C2)C1` [Vincristine], the drug sensitivity score turned out to be 20.3 in test [1], 23.1 in test [2] and 20.2 in test [3].

Consider `CC[C@]12C=CCN3CC[C@@]4(c5cc([C@@]6(C(=O)OC)C[C@@H]7C[C@@H](C(C)(F)F)CN(Cc8c6[nH]c6ccccc86)C7)c(OC)cc5N(C)[C@H]4[C@@](O)(C(=O)OC)[C@@H]1OC(C)=O)[C@@H]32` [Vinflunine], for which the drug sensitivity score in test [1] came to 3.7; in test [2], 3.3; in test [3] it was 4.3.

With `CCC1=C[C@@H]2CN(C1)Cc1c([nH]c3ccccc13)[C@@](C(=O)OC)(c1cc3c(cc1OC)N(C)[C@H]1[C@@](O)(C(=O)OC)[C@H](OC(C)=O)[C@]4(CC)C=CCN5CC[C@]31[C@@H]54)C2` [Vinorelbine], the drug sensitivity score in test [1] stood at 30.2; in test [2], 34.2; in test [3], 29.8.

In the case of `CS(=O)(=O)c1ccc(C(=O)Nc2ccc(Cl)c(-c3ccccn3)c2)c(Cl)c1` [Vismodegib], the drug sensitivity score in test [1], in test [2] and in test [3] was 0 in each case.

`CNC(=O)c1cccc(-c2ccc3c(N4CCOC[C@@H]4C)nc(N4CCOC[C@@H]4C)nc3n2)c1` [Vistusertib]: the drug sensitivity score in test [1] came out at 10.5; in test [2], 15.5; in test [3], 7.5.

`CC[C@@H]1C(=O)N(C)c2cnc(Nc3ccc(C(=O)N[C@H]4CC[C@H](N5CCN(CC6CC6)CC5)CC4)cc3OC)nc2N1C(C)C` [Volasertib]: the values for the drug sensitivity score in test [1], in test [2] and in test [3] were 15.3, 17.4 and 16.6, respectively.

For `O=C(CCCCCCC(=O)Nc1ccccc1)NO` [Vorinostat], the drug sensitivity score in test [1] was 9.8; in test [2], 11.8; in test [3], 7.5.

Turning to `Oc1nc(-c2ccc(C(F)(F)F)cc2)nc2c1CSCC2` [XAV-939], the drug sensitivity score in test [1], in test [2] and in test [3] was 0 in each case.

In the case of `FC(F)c1nc2ccccc2n1-c1nc(N2CCOCC2)nc(N2CCOCC2)n1` [ZSTK474], the drug sensitivity score turned out to be 7.2 in test [1], 10.3 in test [2] and 4.7 in test [3].

`Cc1sc2c(c1C)C(c1ccc(Cl)cc1)=N[C@@H](CC(=O)NCCCCNC(=O)COc1cccc3c1C(=O)N(C1CCC(=O)NC1=O)C3=O)c1nnc(C)n1-2` (some centres not stated) [dBET1]: the values for the drug sensitivity score in test [1], in test [2] and in test [3] were 8, 9.3 and 9.5, respectively.
